What is called Kb is the equilibrium dissociation constant of an antagonist, usually derived from a functional assay.

The values below come from patent US4707485A, “Substituted te[1]trahydroisoquinoline derivatives having β-adrenergic receptor activity” (Smithkline Beckman Corporation, priority 1985, dated 1987).

Where a name gives a salt, the structure may show the parent alone.

The assay concerns the target T1, β-adrenergic receptors (Cavia porcellus, UniProt H0W3H1).
T1 construct: The ventricles and adipose tissue were carefully cut away to leave the atria as an intact pair; from tissue; host or cells: isolated guinea pig atria (intact pair)
Briefly: Inhibition of isoproterenol-induced enhancement of the rate of contraction of guinea pig atrial pairs in vitro (KB as β-antagonist). In kind it is cell-based. The note with it: guinea pig atria, versus isoproterenol, KB from dose ratio of isoproterenol EC50, 37° C., read-out: receptor dissociation constant (KB) as a β-antagonist. The method, then: The β-blocking activity of the compounds of structure (I) can be assessed in a test for inhibition of isoproterenol-induced enhancement of the rate of contraction of guinea pig atrial pairs in vitro.
Inhibition of isoproterenol-induced enhancement of constricted guinea pig atria
A guinea pig (500-700 g) was injected with sodium pentobarbital (50 mg/kg, ip). When anesthetized, the heart was removed and placed in cold (5°-10° C.), oxygenated Krebs-Hensleit solution. The ventricles and adipose tissue were carefully cut away to leave the atria as an intact pair. A thread was tied to the apex of each atrium and the tissue suspended in a 50 ml tissue bath, attached to a force-displacement transducer. A diastolic tension of 1 g was maintained. Atrial contraction rate was measured using biotachometer, driven by the transducer amplifier.
A 30 minute stabilization period was allowed before obtaining the first dose response curve, during which time the tissue was washed several times with fresh solution. A concentration-response curve to isoprotererol was then determined, increasing agonist concentrations when the rate response to the previous dose had stabilized. After this determination, any β-antagonist activity of the test compound was measured via a concentration-response curve. […]

T1 sequence (H0W3H1 1-470): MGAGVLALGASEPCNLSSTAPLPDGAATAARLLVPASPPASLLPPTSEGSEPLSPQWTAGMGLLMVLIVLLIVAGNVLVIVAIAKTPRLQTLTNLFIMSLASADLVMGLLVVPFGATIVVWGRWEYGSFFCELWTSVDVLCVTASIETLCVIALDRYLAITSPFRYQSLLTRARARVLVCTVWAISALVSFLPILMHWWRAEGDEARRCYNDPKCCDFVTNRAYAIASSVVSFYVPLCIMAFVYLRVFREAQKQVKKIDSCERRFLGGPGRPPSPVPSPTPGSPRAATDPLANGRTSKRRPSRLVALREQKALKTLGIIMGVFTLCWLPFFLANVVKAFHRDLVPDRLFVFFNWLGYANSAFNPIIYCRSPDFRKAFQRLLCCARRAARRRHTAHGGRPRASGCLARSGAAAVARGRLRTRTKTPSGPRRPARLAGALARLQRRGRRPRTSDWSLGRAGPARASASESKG

Consider `COc1cc(CC2NCCc3cc(Cl)c(Cl)cc32)cc(OC)c1OC` (stereo not shown) [Example 1, 6,7-dichloro-1-(3,4,5-trimethoxybenzyl)-1,2,3,4-tetrahydroisoquinoline fumarate], for which the antagonist dissociation constant (Kb) worked out at 67 nM.
